According to patent publication US11921020B2, “Method of purifying tumor cells using shear stress” (UNIVERSITY OF IOWA RESEARCH FOUNDATION, priority 2011, dated 2024):

Columns and labels:
PC-3 cells = test: Fluid shear stress protocol (repeated passage through 30 gauge needle), cell viability; type: cell-based, human; conditions: for shear stress resistance of cells in PBS supplemented with the cation: 88 mM final concentration, n=1
Method: (§1) 5 mL of a 5×10^5 cell/mL suspension was placed into 10 mL glass beaker (Pyrex) and loaded into a 5 mL syringe (BD Biosciences #309603) by slowly drawing the cells into the syringe manually. A 30 gauge needle (BD Biosciences #305106) was then attached to the syringe and cells were pushed through at a constant flow rate by one of two methods:
Syringe Pump: A Harvard Apparatus PHD-2000 Infuse/Withdraw syringe pump was calibrated for the syringes being used and set to the appropriate flow rate (see Table I). After securing the syringe to the pump housing, a 6-inch small bore extension set (Smiths Medical MX448L) was used to connect the syringe and needle. The 10 mL beaker was secured at a 45-degree angle and the needle rested gently (without damaging the bevel) at the bottom of the beaker. The pump is then turned on and the cell suspension was collected into the beaker. The bore extension, still connected to the needle, was then removed from the syringe, and the syringe was removed from the pump. The cell suspension was re-loaded into the syringe as described above. In a standard assay, this process was repeated until cells have been passaged a total of ten times (control experiments were taken out to 15 passages). After each passage, 100 μL aliquots of cell suspension were removed from the glass beaker in duplicate for viability assays (described below). For non-shear stress treated control, cells which have been in suspension for the entire duration of the assay were aliquoted and treated as 100% viability controls.
(§2) 250 μL/sec flow rate: This is the most commonly used flow rate throughout this example. To facilitate throughput, some experiments at 250 μL/sec were done manually. Here, cell suspensions were prepared as above with one exception: the small bore extension was not used, rather the needle was directly secured to the syringe. Suspensions were pushed through the needle by hand and collected into a 10 mL glass beaker. To control the flow rate using this approach, a timer was zeroed before each needle passage and the time taken to push a given volume through the needle was measured. At each passage, the volume in milliliters was divided by the time in seconds to give flow rate in mL/sec. Data for figures was only obtained from shear stress assays in which the average flow rate over 10 passages was ±10 μL/sec of the targeted 250 μL/sec. […] Further, to assure reproducibility, most assays were repeated ten times or more.
Bioluminescence Imaging (BLI): 100 μL aliquots of shear stress-treated cells or control cells (those sitting in suspension through the duration of shear treatment) were loaded into a black 96 well plate (Costar) in duplicate. Each well was then diluted to 200 μL at final concentration of 150 μg/mL D-luciferin (Promega) using a multichannel pipette. Plates were incubated for 5 minutes at room temperature and then imaged for 5 minutes in an IVIS-100 (Xenogen). Bioluminescence measurements were collected using Living Image 2.50.1 software (Igor Pro). The photon flux of shear treated cells was divided by that of control cells to give % viability. All figures with BLI-derived viability data represent the average of at least 3 experiments.
Next, whether rearrangements of the cytoskeleton occur in response to shear stress and thereby imparts a protective advantage to cells was investigated. […]

MDA.MB.231 cells = test: as above; type: cell-based, human
Method: as §1
as §2, with “more. […]” for “more.”

[1] = 20 nM for one hour before shear stress protocol
[2] = brief treatment prior to shear stress protocol

Which “shear stress resistance of cells in PBS supplemented with the cation” value (PC-3 cells; 250 μL/sec) does the source give for `[Ca+2]` [calcium] here?
Its value is “rescues the shear stress resistance phenotype”.

What about the “survival curve under shear stress of cells in PBS supplemented with the cation” value (PC-3 cells; 250 μL/sec, calcium at same concentration as complete medium (129.4 μg/mL)) of the same molecule?
The value was “not significantly different from the media control suspensions”.

What does the source list for `C=C1[C@@H](C)[C@H]2[C@H](Cc3ccccc3)NC(=O)[C@]23[C@H](OC(C)=O)/C=C/[C@@](C)(O)C(=O)[C@@H](C)C/C=C/[C@H]3[C@@H]1O` [cytochalasin-D]?
cell death in treated cells versus DMSO treated controls after shear stress protocol (PC-3 cells; [1]): over 3 fold; cell viability during pretreatment, before shear stress (PC-3 cells; [2]): not affected; cell death in treated cells versus DMSO treated controls after shear stress protocol (MDA.MB.231 cells; [1]): over 3 fold; cell viability during pretreatment, before shear stress (MDA.MB.231 cells; [2]): not affected

`[Ba]` [barium] was tested. Which “shear stress resistance of cells in PBS supplemented with the cation” value (PC-3 cells; 250 μL/sec) did it give?
Its value is “equally susceptible to shear stress as cells in nominally calcium-free PBS”.
